Paper PMC7070898 (Clinical and Translational Science, 2019)

Assay: Safety and tolerability
Settings: for Subjects with TEAEs: all evobrutinib doses pooled
[1] = one subject, 200 mg single dose, day 11
[2] = part 1 single dosing, pooled evobrutinib
[3] = part 2 multiple dosing, pooled evobrutinib

SMILES: C=CC(=O)N1CCC(CNc2ncnc(N)c2-c2ccc(Oc3ccccc3)cc2)CC1 [evobrutinib]
- TEAE: Abdominal pain (SAD 100 mg, n = 6): 0 (0.0) n (%), (number of events)
- TEAE: Amylase increased (SAD 100 mg, n = 6): 0 (0.0) n (%), (number of events)
- TEAE: Application site pruritus (due to ECG stickers) (SAD 100 mg, n = 6): 0 (0.0) n (%), (number of events)
- TEAE: Back pain (SAD 100 mg, n = 6): 0 (0.0) n (%), (number of events)
- TEAE: Contact dermatitis (SAD 100 mg, n = 6): 0 (0.0) n (%), (number of events)
- TEAE: Dizziness (SAD 100 mg, n = 6): 0 (0.0) n (%), (number of events)
- TEAE: Dry eye (SAD 100 mg, n = 6): 0 (0.0) n (%), (number of events)
- TEAE: Dry mouth (SAD 100 mg, n = 6): 0 (0.0) n (%), (number of events)
- TEAE: Dyspepsia (SAD 100 mg, n = 6): 0 (0.0) n (%), (number of events)
- TEAE: Excoriation (SAD 100 mg, n = 6): 0 (0.0) n (%), (number of events)
- TEAE: Headache (SAD 100 mg, n = 6): 0 (0.0) n (%), (number of events)
- TEAE: Lipase increased (SAD 100 mg, n = 6): 0 (0.0) n (%), (number of events)
- TEAE: Multiple injuries (SAD 100 mg, n = 6): 0 (0.0) n (%), (number of events)
- TEAE: Nasal congestion (SAD 100 mg, n = 6): 1 (16.7) (1) n (%), (number of events)
- TEAE: Noncardiac chest pain (SAD 100 mg, n = 6): 0 (0.0) n (%), (number of events)
- TEAE: Odynophagia (SAD 100 mg, n = 6): 0 (0.0) n (%), (number of events)
- TEAE: Overall total (SAD 100 mg, n = 6): 1 (16.7) (1) n (%), (number of events)
- TEAE: URTI (SAD 100 mg, n = 6): 0 (0.0) n (%), (number of events)
- TEAE: Abdominal pain (SAD 200 mg, n = 6): 0 (0.0) n (%), (number of events)
- TEAE: Amylase increased (SAD 200 mg, n = 6): 1 (16.7) (1) n (%), (number of events)
- TEAE: Application site pruritus (due to ECG stickers) (SAD 200 mg, n = 6): 0 (0.0) n (%), (number of events)
- TEAE: Back pain (SAD 200 mg, n = 6): 0 (0.0) n (%), (number of events)
- TEAE: Contact dermatitis (SAD 200 mg, n = 6): 0 (0.0) n (%), (number of events)
- TEAE: Dizziness (SAD 200 mg, n = 6): 1 (16.7) (1) n (%), (number of events)
- TEAE: Dry eye (SAD 200 mg, n = 6): 0 (0.0) n (%), (number of events)
- TEAE: Dry mouth (SAD 200 mg, n = 6): 0 (0.0) n (%), (number of events)
- TEAE: Dyspepsia (SAD 200 mg, n = 6): 0 (0.0) n (%), (number of events)
- TEAE: Excoriation (SAD 200 mg, n = 6): 1 (16.7) (1) n (%), (number of events)
- TEAE: Headache (SAD 200 mg, n = 6): 0 (0.0) n (%), (number of events)
- TEAE: Lipase increased (SAD 200 mg, n = 6): 1 (16.7) (1) n (%), (number of events)
- TEAE: Multiple injuries (SAD 200 mg, n = 6): 0 (0.0) n (%), (number of events)
- TEAE: Nasal congestion (SAD 200 mg, n = 6): 0 (0.0) n (%), (number of events)
- TEAE: Noncardiac chest pain (SAD 200 mg, n = 6): 0 (0.0) n (%), (number of events)
- TEAE: Odynophagia (SAD 200 mg, n = 6): 0 (0.0) n (%), (number of events)
- TEAE: Overall total (SAD 200 mg, n = 6): 2 (33.3) (4) n (%), (number of events)
- TEAE: URTI (SAD 200 mg, n = 6): 0 (0.0) n (%), (number of events)
- TEAE: Abdominal pain (SAD 350 mg, n = 6): 0 (0.0) n (%), (number of events)
- TEAE: Amylase increased (SAD 350 mg, n = 6): 0 (0.0) n (%), (number of events)
- TEAE: Application site pruritus (due to ECG stickers) (SAD 350 mg, n = 6): 0 (0.0) n (%), (number of events)
- TEAE: Back pain (SAD 350 mg, n = 6): 0 (0.0) n (%), (number of events)
- TEAE: Contact dermatitis (SAD 350 mg, n = 6): 0 (0.0) n (%), (number of events)
- TEAE: Dizziness (SAD 350 mg, n = 6): 0 (0.0) n (%), (number of events)
- TEAE: Dry eye (SAD 350 mg, n = 6): 0 (0.0) n (%), (number of events)
- TEAE: Dry mouth (SAD 350 mg, n = 6): 0 (0.0) n (%), (number of events)
- TEAE: Dyspepsia (SAD 350 mg, n = 6): 0 (0.0) n (%), (number of events)
- TEAE: Excoriation (SAD 350 mg, n = 6): 0 (0.0) n (%), (number of events)
- TEAE: Headache (SAD 350 mg, n = 6): 0 (0.0) n (%), (number of events)
- TEAE: Lipase increased (SAD 350 mg, n = 6): 0 (0.0) n (%), (number of events)
- TEAE: Multiple injuries (SAD 350 mg, n = 6): 1 (16.7) (1) n (%), (number of events)
- TEAE: Nasal congestion (SAD 350 mg, n = 6): 0 (0.0) n (%), (number of events)
- TEAE: Noncardiac chest pain (SAD 350 mg, n = 6): 0 (0.0) n (%), (number of events)
- TEAE: Odynophagia (SAD 350 mg, n = 6): 0 (0.0) n (%), (number of events)
- TEAE: Overall total (SAD 350 mg, n = 6): 1 (16.7) (1) n (%), (number of events)
- TEAE: URTI (SAD 350 mg, n = 6): 0 (0.0) n (%), (number of events)
- TEAE: Abdominal pain (SAD 500 mg, n = 6): 0 (0.0) n (%), (number of events)
- TEAE: Amylase increased (SAD 500 mg, n = 6): 0 (0.0) n (%), (number of events)
- TEAE: Application site pruritus (due to ECG stickers) (SAD 500 mg, n = 6): 0 (0.0) n (%), (number of events)
- TEAE: Back pain (SAD 500 mg, n = 6): 0 (0.0) n (%), (number of events)
- TEAE: Contact dermatitis (SAD 500 mg, n = 6): 0 (0.0) n (%), (number of events)
- TEAE: Dizziness (SAD 500 mg, n = 6): 0 (0.0) n (%), (number of events)
- TEAE: Dry eye (SAD 500 mg, n = 6): 1 (16.7) (1) n (%), (number of events)
- TEAE: Dry mouth (SAD 500 mg, n = 6): 0 (0.0) n (%), (number of events)
- TEAE: Dyspepsia (SAD 500 mg, n = 6): 0 (0.0) n (%), (number of events)
- TEAE: Excoriation (SAD 500 mg, n = 6): 0 (0.0) n (%), (number of events)
- TEAE: Headache (SAD 500 mg, n = 6): 1 (16.7) (1) n (%), (number of events)
- TEAE: Lipase increased (SAD 500 mg, n = 6): 0 (0.0) n (%), (number of events)
- TEAE: Multiple injuries (SAD 500 mg, n = 6): 0 (0.0) n (%), (number of events)
- TEAE: Nasal congestion (SAD 500 mg, n = 6): 0 (0.0) n (%), (number of events)
- TEAE: Noncardiac chest pain (SAD 500 mg, n = 6): 0 (0.0) n (%), (number of events)
- TEAE: Odynophagia (SAD 500 mg, n = 6): 1 (16.7) (1) n (%), (number of events)
- TEAE: Overall total (SAD 500 mg, n = 6): 2 (33.3) (3) n (%), (number of events)
- TEAE: URTI (SAD 500 mg, n = 6): 0 (0.0) n (%), (number of events)
- TEAE: Abdominal pain (SAD pooled active, n = 36): 0 (0.0) n (%), (number of events)
- TEAE: Amylase increased (SAD pooled active, n = 36): 1 (2.8) (1) n (%), (number of events)
- TEAE: Application site pruritus (due to ECG stickers) (SAD pooled active, n = 36): 0 (0.0) n (%), (number of events)
- TEAE: Back pain (SAD pooled active, n = 36): 1 (2.8) (1) n (%), (number of events)
- TEAE: Contact dermatitis (SAD pooled active, n = 36): 2 (5.6) (2) n (%), (number of events)
- TEAE: Dizziness (SAD pooled active, n = 36): 1 (2.8) (1) n (%), (number of events)
- TEAE: Dry eye (SAD pooled active, n = 36): 1 (2.8) (1) n (%), (number of events)
- TEAE: Dry mouth (SAD pooled active, n = 36): 0 (0.0) n (%), (number of events)
- TEAE: Dyspepsia (SAD pooled active, n = 36): 1 (2.8) (1) n (%), (number of events)
- TEAE: Excoriation (SAD pooled active, n = 36): 1 (2.8) (1) n (%), (number of events)
- TEAE: Headache (SAD pooled active, n = 36): 2 (5.6) (3) n (%), (number of events)
- TEAE: Lipase increased (SAD pooled active, n = 36): 1 (2.8) (1) n (%), (number of events)
- TEAE: Multiple injuries (SAD pooled active, n = 36): 1 (2.8) (1) n (%), (number of events)
- TEAE: Nasal congestion (SAD pooled active, n = 36): 1 (2.8) (1) n (%), (number of events)
- TEAE: Noncardiac chest pain (SAD pooled active, n = 36): 0 (0.0) n (%), (number of events)
- TEAE: Odynophagia (SAD pooled active, n = 36): 1 (2.8) (1) n (%), (number of events)
- TEAE: Overall total (SAD pooled active, n = 36): 9 (25.0) (15) n (%), (number of events)
- TEAE: URTI (SAD pooled active, n = 36): 0 (0.0) n (%), (number of events)
- nontolerated dose (after SAD or MAD administrations): no nontolerated dose could be defined
- Subjects with TEAEs (after multiple dosing): 48.1%
- Subjects with TEAEs (after single dosing): 25%
- toxicity grade of increased amylase [1]: 3 grade
- toxicity grade of increased lipase (dose‐limiting TEAE) [1]: 4 grade
- Subjects with contact dermatitis at locations of ECG pads [2]: 5.6%
- Subjects with headache [2]: 5.6%
- severity of TEAEs (part 2 multiple dosing): All TEAEs reported were mild and no dose‐limiting adverse events were reported
- Subjects with fatigue [3]: 7.4%
- Subjects with gastrointestinal TEAEs [3]: 18.5%
- Subjects with headache [3]: 11.1%
- Subjects with skin irritation due to ECG pads [3]: 7.4%
- Subjects with upper respiratory tract infection [3]: 7.4%
- deaths or treatment-related SAEs (parts 1 and 2): no deaths or SAEs related to treatment
